The values that follow come from paper PMC9944867, “Mechanistic in vitro studies indicate that the clinical drug–drug interactions between protease inhibitors and rosuvastatin are driven by inhibition of intestinal BCRP and hepatic OATP1B1 with minimal contribution from OATP1B3, NTCP and OAT3” (Pharmacology Research & Perspectives, 2023).

“And” between values parts separate entries of the source, which are not always exact repeats. Equal values may be shown once. Read-outs that look alike come from different tables or passages of the source.

The target of series [1] is T1, human NTCP (SLC10A1) (Homo sapiens, UniProt Q14973).
T1 construct: host or cells: HEK293 TransportoCells
T1 sequence (Q14973 1-349): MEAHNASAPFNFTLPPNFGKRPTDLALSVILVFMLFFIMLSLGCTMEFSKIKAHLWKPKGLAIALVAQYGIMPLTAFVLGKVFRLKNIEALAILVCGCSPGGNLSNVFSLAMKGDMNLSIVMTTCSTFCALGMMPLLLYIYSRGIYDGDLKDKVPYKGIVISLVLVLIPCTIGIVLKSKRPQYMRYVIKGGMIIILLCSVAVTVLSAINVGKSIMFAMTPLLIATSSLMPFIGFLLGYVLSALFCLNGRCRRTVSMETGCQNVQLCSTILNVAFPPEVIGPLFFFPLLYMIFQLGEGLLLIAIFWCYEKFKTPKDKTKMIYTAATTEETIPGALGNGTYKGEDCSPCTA
As to the kind of experiment: NTCP inhibition in transporter-expressing HEK293 cells, [3H]-taurocholic acid uptake (IC50 determination). The note with it: for IC50: NTCP-mediated transport of [3H]-taurocholic acid (1 μM), HEK293. Format: cell-based.

The next series deals with OATP1B3. Also on record: method as in Vildhede et al.[33]. Particulars: ref Vildhede et al.[33], cited from earlier work.
A further series addresses T2, human OATP1B3 (SLCO1B3) (Homo sapiens, UniProt Q9NPD5).
T2 sequence (Q9NPD5 1-702): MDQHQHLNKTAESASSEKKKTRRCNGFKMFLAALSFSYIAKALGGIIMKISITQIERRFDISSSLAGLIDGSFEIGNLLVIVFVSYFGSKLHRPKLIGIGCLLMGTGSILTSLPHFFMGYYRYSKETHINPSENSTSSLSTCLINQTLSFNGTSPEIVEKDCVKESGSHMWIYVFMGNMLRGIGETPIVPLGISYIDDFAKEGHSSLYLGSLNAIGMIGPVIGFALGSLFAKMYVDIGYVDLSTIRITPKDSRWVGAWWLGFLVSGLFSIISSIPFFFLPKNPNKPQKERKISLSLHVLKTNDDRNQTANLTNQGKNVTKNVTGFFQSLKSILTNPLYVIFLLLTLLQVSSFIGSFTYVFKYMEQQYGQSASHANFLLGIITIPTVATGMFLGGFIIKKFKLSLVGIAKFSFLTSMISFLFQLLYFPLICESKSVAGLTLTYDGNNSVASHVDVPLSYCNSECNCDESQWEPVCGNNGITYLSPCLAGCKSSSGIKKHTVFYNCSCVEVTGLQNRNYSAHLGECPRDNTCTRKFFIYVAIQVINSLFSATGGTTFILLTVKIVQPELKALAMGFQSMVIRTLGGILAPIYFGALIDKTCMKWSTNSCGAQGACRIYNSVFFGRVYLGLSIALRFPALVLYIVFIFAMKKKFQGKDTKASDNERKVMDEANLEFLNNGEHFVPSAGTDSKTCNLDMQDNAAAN
As to the kind of experiment: OATP1B3 inhibition in transporter-expressing HEK293 cells, [3H]-estradiol 17β-D-glucuronide uptake (IC50 determination). Particulars: for IC50: OATP1B3-mediated transport of [3H]-estradiol 17β-D-glucuronide (0.02 μM), HEK293. On the procedure: (§1) OATP1B1, OATP1B3, NTCP and vector control cell lines were cultured and subsequent transporter assays conducted as described above using the same transporter‐specific probe substrates and incubation times. For OATP1B1, the probe substrate was [^3H]‐estradiol 17β‐D‐glucuronide (0.02 μM) incubated for 2 min, with rifamycin SV (100 μM) as positive control inhibitor. For IC50 determinations, the only difference to the method performed above was that the 15‐min pre‐incubation step contained a range of six concentrations of protease inhibitor drug, and subsequent incubations were conducted with the same six concentration levels of drug rather than with a single concentration.

In another series the test system is NTCP. Also on record: method as in Vildhede et al.[33]. Particulars: ref Vildhede et al.[33], cited from earlier work.
The conditions of series [2]: cited from earlier work; for Cmax: read-out: [Cmax] mean steady-state maximum plasma concentration, total drug; for fu fraction unbound: in plasma, ref drug label accessed via Drugs@FDA database.
The next series has as its target T3, human OATP1B1 (SLCO1B1) (Homo sapiens, UniProt Q9Y6L6).
T3 sequence (Q9Y6L6 1-691): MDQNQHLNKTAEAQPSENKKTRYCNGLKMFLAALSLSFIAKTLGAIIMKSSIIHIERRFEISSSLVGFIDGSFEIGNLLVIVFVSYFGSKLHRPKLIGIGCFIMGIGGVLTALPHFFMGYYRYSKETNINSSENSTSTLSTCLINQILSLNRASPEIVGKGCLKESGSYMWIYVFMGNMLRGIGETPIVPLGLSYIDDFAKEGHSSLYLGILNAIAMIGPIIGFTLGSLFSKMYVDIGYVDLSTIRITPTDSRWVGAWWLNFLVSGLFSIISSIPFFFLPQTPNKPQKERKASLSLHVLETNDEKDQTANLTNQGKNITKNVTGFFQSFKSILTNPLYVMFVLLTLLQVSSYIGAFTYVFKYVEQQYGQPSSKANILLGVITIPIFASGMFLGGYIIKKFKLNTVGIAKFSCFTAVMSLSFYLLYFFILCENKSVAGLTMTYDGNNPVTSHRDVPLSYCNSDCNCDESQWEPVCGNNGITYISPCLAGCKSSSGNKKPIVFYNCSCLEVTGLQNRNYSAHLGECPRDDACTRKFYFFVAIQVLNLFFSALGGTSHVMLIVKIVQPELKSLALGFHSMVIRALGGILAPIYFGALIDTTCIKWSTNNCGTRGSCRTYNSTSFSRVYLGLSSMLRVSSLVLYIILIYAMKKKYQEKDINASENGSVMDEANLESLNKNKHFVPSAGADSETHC
Nature of the series: OATP1B1 inhibition in transporter-expressing HEK293 cells, [3H]-estradiol 17β-D-glucuronide uptake (IC50 determination). Particulars: OATP1B1-mediated transport of [3H]-estradiol 17β-D-glucuronide (0.02 μM), HEK293. As to the method: as §1

For series [3], the target named is T1, human NTCP (SLC10A1). Nature of the series: NTCP single concentration inhibition screen in HEK293 cells. Format: cell-based. Particulars: ≥10x [Iin max u]: atazanavir 50 μM, darunavir 15 μM, lopinavir 5 μM, ritonavir 0.3 μM; [3H]-taurocholic acid 1 μM.
In another series the test system is OAT3. Also on record: method as in Yoshida et al.[32]. The note with it: up to 10 μM; ref Yoshida et al.[32]; cited from earlier work.
Setting [4] is: mean (±SD) of three occasions, read-out: IC50 mean (NTCP).
[5] abbreviates: single occasion, read-out: IC50, determined values from different occasions (NTCP).
The mark [6] stands for this setting: IC50, determined values from different occasions (OATP1B3), single occasion.
The mark [7] stands for this setting: IC50 mean (OATP1B3), mean (±SD) of three occasions.
Where [8] appears, read: IC50, determined values from different occasions (OATP1B1), single occasion.
The mark [9] stands for this setting: IC50 mean (OATP1B1), mean (±SD) of three occasions.

The term IC50 denotes the concentration that inhibits the measured activity by half.

With `COC(=O)N[C@H](C(=O)N[C@@H](Cc1ccccc1)[C@@H](O)CN(Cc1ccc(-c2ccccn2)cc1)NC(=O)[C@@H](NC(=O)OC)C(C)(C)C)C(C)(C)C` [atazanavir], the “R value (NTCP)” value at human NTCP (SLC10A1) [1] (FDA static equation R = 1 + [Iin max u]/Ki, potential for interaction if ≥1.1) was 1.07. Besides, the concentration for half-maximal inhibition (IC50) was 65.6 µM on human NTCP (SLC10A1) [1] (setting [4]); 55.9 µM and 63.8 µM and 77.1 µM at human NTCP (SLC10A1) [1] (setting [5]); 1.75 µM and 2.41 µM and 1.43 µM at human OATP1B3 (SLCO1B3) (setting [6]); 1.86 µM against human OATP1B3 (SLCO1B3) (setting [7]); 0.583 µM and 0.69 µM against human OATP1B1 (SLCO1B1) (setting [8]); 0.734 µM against human OATP1B1 (SLCO1B1) (setting [9]). Further, the “Published IC50/Ki (OATP1B3)” value with OATP1B3 (probe substrate atorvastatin) is listed as 7.3 (atorvastatin) μM. On human OATP1B3 (SLCO1B3) (against value with atorvastatin as probe substrate [33]), the “Mean OATP1B3 IC50 (Ki), fold lower than previously published” value is given as 3.9 fold. For the same compound, the “Inhibition of NTCP, published” value in the series on NTCP (tested up to 40 μM) was “no inhibition”. In series [2] (clinical dose of Table 5, ref Elsby et al.[1]), the Cmax is 8.68 µM. In addition, in series [2], the fu fraction unbound is given as 0.14. Further, the “Inhibition of NTCP-mediated probe substrate transport, single concentration screen” value on human NTCP (SLC10A1) [3] is “produced inhibition”. Further, in the series on OAT3, the “Inhibition of OAT3, published” value was “no inhibition”.
Take `Cc1cccc(C)c1OCC(=O)N[C@@H](Cc1ccccc1)[C@@H](O)C[C@H](Cc1ccccc1)NC(=O)[C@H](C(C)C)N1CCCNC1=O` [lopinavir]: the IC50 at human NTCP (SLC10A1) [1] (setting [4]) was 20.3 µM; at human NTCP (SLC10A1) [1] (setting [5]), 22.6 µM and 18.4 µM and 19.9 µM; against human OATP1B3 (SLCO1B3) (setting [6]) it was 5.14 µM and 5.04 µM and 4.95 µM; against human OATP1B3 (SLCO1B3) (setting [7]), 5.04 ± 0.095 µM; at human OATP1B1 (SLCO1B1) (setting [8]), 0.291 µM and 0.207 µM and 0.162 µM; against human OATP1B1 (SLCO1B1) (setting [9]), 0.22 µM. Also, the “Inhibition of OATP1B3, published” value with OATP1B3 (tested up to 10 μM) was “no inhibition”. Moreover, the “Inhibition of NTCP, published” value with NTCP (tested up to 10 μM) is given as “no inhibition”. Further, the Cmax in series [2] (400 mg, ref Elsby et al.[13]) was 14.6 µM. The fu fraction unbound in series [2] is reported as 0.02. Moreover, at human NTCP (SLC10A1) [3], the “Inhibition of NTCP-mediated probe substrate transport, single concentration screen” value is “produced inhibition”. The “Inhibition of OAT3, published” value in the series on OAT3 is on record as “no inhibition”.
